From patent US10000483B2, “Bone marrow on X chromosome kinase (BMX) inhibitors and uses thereof” (Dana-Farber Cancer Institute, Inc., priority 2012, dated 2018)
Several values for one entry are separate records, joined by “and”; a condition that tells them apart may be missing. Equal entries are not always repeated.

Assays:
RV-1 cells = experiment: Combination of I-14 with MK2206, dose-response in RV-1 cells; settings: with I-14
[1] = system: Bmx- MEF cells stably overexpressing BmxWT; experiment: Wound healing assay; format: cell-based, mouse; settings: preincubated 4 h; leading edges at 0 and 9 h
Description: FIGS. 3A-B show the immunoblotting results where BMX (SiBMX) or control siRNA (SiCtrl) transfected LNCaP cells (FIG. 3A) or VCS2 cells (FIG. 3B) were serum starved for 72 h, serum was stimulated for the indicated times, and the whole cell lysates were immunoblotted. […] FIG. 3G is a bar graph showing the migrated distances where scratch wounds were introduced into confluent heterozygous for Bmx (Bmx^+/−), Bmx^+, or Bmx^− MEFs, and the leading edges were photographed at 0 and 9 h. The migrated distance was measured and normalized to #1 Bmx-group. Error bars depict standard error (SE) for three experiments (***: p<0.001). FIG. 3H is a bar graph showing the migrated distances where scratch wounds were introduced into confluent Bmx^− MEFs stably overexpressing BmxWT, BmxKD, or empty vector (EV), and the leading edges were photographed at 0 and 9 h. The migrated distance was measured and normalized to EV group. Error bar depict standard error (SE) for three independent experiments (*: p<0.05). FIG. 3I is a bar graph showing the migrated distances where Bmx^− MEF cells stably overexpressing BmxWT were preincubated with FAK inhibitor (PF562271) for 4 h. Scratch wounds were introduced into the cells, and the leading edges were photographed at 0 and 9 h. The migrated distance was measured and normalized to control group (Ctrl). […]

[2] = system: CD19+ B-cells from a Waldenstrom's macroglobulinemia patient; experiment: Apoptosis analysis of primary patient cells (Annexin V/propidium iodide); format: cell-based, human; settings: patient after six months of ibrutinib treatment; FIG. 22
Description: Primary patient WM cells genotyped for MYD88 L265P, as well as MYD88 WT healthy donor CD19-selected peripheral blood mononuclear cells (PBMCs) were treated with and without inhibitor compounds. Cells were incubated at 37° C. with 0.01˜4 μM of an inhibitor compound of Formula (I) or (II) (e.g., 11-4). Apoptosis analysis was performed using Annexin V-FITC/Propidium iodide staining with the Apoptosis Detection Kit I (BD Pharmingen). 1×10^6/well cells were treated in 24 well plates for˜24 hours with inhibitor compounds or corresponding controls. A minimum of 10,000 events were acquired using a BD™ FACSCanto II flow cytometer and analyzed with BD FACS DIVA Software.

OCI-Ly3 cells = experiment: Cell proliferation analysis for WM and lymphoma cell lines (CellTiter-Glo); format: cell-based; settings: Homo sapiens, 72 hours
Description: (§2) Various cell lines were used including Waldenström's macroglobulinemia (WM) cell lines (BCWM.1, MWCL-1, RPCI-WM1) and B-cell lymphoma cell lines (OCI-Ly3, Ramos, OCI-Ly19). Cells were seeded into 384 well plates with the EL406 Combination Washer Dispenser (BioTek Instruments, Inc.) and inhibitor compounds were injected into the cells culture media with the JANUS Automated Workstation (PerkinElmer Inc.).

BCWM.1 cells = experiment: as above; format: cell-based; settings: BCWM1; 72 hours
Description: as §2

OCI-Ly19 cells = experiment: as above; format: cell-based; settings: Homo sapiens, 72 hours
Description: as §2

MWCL-1 cells = experiment: as above; format: cell-based; settings: 72 hours
Description: as §2

CLK1 [3] = target: T1, CLK1 (Homo sapiens (Human), UniProt P49759); experiment: Invitrogen Select Screening in vitro kinase assay; format: biochemical; settings: first value of CLK1/2 cell
JAK3 [4] = target: T2, JAK3 (Homo sapiens (Human), UniProt P52333); experiment: DiscoverX binding assay
Source text: (§3) Screening hits are identified by measuring the amount of protein captured in test versus control samples by using a quantitative, precise, and ultra-sensitive qPCR method that detects the associated DNA label.

IRAK3 = IRAK3 (Homo sapiens (Human), UniProt Q9Y616); experiment: Kinase panel at 1 uM (Table 9); format: binding; settings: read-out: % inhibition at 1 uM, IRAK3
Source text: as §3

JAK3 [5] = target: T2, JAK3; experiment: Invitrogen Select Screening in vitro kinase assay; format: biochemical
MKNK2 = MKNK2 (Homo sapiens (Human), UniProt Q9HBH9); experiment: Kinase panel at 1 uM (Table 9); format: binding; settings: read-out: % inhibition at 1 uM, MKNK2
Source text: as §3

ITK = ITK (Homo sapiens (Human), UniProt Q08881); experiment: DiscoverX binding assay
Source text: as §3

BMX [6] = target: T3, BMX (Homo sapiens (Human), UniProt P51813); experiment: Invitrogen Select Screening in vitro kinase assay; format: biochemical
YSK4 = YSK4 (Homo sapiens (Human), UniProt Q56UN5); experiment: Kinase panel at 1 uM (Table 9); format: binding; settings: read-out: % inhibition at 1 uM, YSK4
Source text: as §3

MEK5 = MEK5 (Homo sapiens (Human), UniProt Q13163); experiment: Kinase panel at 1 uM (Table 9); format: binding; settings: read-out: % inhibition at 1 uM, MEK5
Source text: as §3

BLK [7] = target: T4, BLK (Homo sapiens (Human), UniProt P51451); experiment: DiscoverX binding assay
Source text: as §3

PIK3CG = PIK3CG (Homo sapiens (Human), UniProt P48736); experiment: Kinase panel at 1 uM (Table 9); format: binding; settings: read-out: % inhibition at 1 uM, PIK3CG
Source text: as §3

FLT3(ITD) = experiment: Kinase panel at 1 uM (Table 9); format: binding
Source text: as §3

TAK1 = TAK1 (Homo sapiens (Human), UniProt O43318); experiment: Kinase panel at 1 uM (Table 9); format: binding; settings: read-out: % inhibition at 1 uM, TAK1
Source text: as §3

CLK2 [8] = target: T5, CLK2 (Homo sapiens (Human), UniProt P49760); experiment: Invitrogen Select Screening in vitro kinase assay; format: biochemical; settings: second value of CLK1/2 cell
BTK [9] = target: T6, BTK (Homo sapiens (Human), UniProt Q06187); experiment: DiscoverX binding assay
Source text: as §3

DYRK1B = DYRK1B (Homo sapiens (Human), UniProt Q9Y463); experiment: Kinase panel at 1 uM (Table 9); format: binding; settings: read-out: % inhibition at 1 uM, DYRK1B
Source text: as §3

JNK1 = JNK1 (Homo sapiens (Human), UniProt P45983); experiment: Kinase panel at 1 uM (Table 9); format: binding; settings: read-out: % inhibition at 1 uM, JNK1
Source text: as §3

EGFR(T790M) [10] = target: T7, EGFR(T790M) (Homo sapiens (Human), UniProt P00533, T790M); experiment: DiscoverX binding assay
Source text: as §3

BTK [11] = target: T6, BTK; experiment: Invitrogen Select Screening in vitro kinase assay; format: biochemical
Ramos cells = experiment: Cell proliferation analysis for WM and lymphoma cell lines (CellTiter-Glo); format: cell-based; settings: Homo sapiens, 72 hours
Description: as §2

PIK4CB = PIK4CB (Homo sapiens (Human), UniProt Q9UBF8); experiment: Kinase panel at 1 uM (Table 9); format: binding; settings: read-out: % inhibition at 1 uM, PIK4CB
Source text: as §3

CSNK2A2 = CSNK2A2 (Homo sapiens (Human), UniProt P19784); experiment: Kinase panel at 1 uM (Table 9); format: binding; settings: read-out: % inhibition at 1 uM, CSNK2A2
Source text: as §3

PIP5K2C = PIP5K2C (Homo sapiens (Human), UniProt Q8TBX8); experiment: Kinase panel at 1 uM (Table 9); format: binding; settings: read-out: % inhibition at 1 uM, PIP5K2C
Source text: as §3

DYRK1A = DYRK1A (Homo sapiens (Human), UniProt Q13627); experiment: Kinase panel at 1 uM (Table 9); format: binding; settings: read-out: % inhibition at 1 uM, DYRK1A
Source text: as §3

BMX [12] = target: T3, BMX; experiment: DiscoverX binding assay
Source text: as §3

DYRK2 = DYRK2 (Homo sapiens (Human), UniProt Q92630); experiment: Kinase panel at 1 uM (Table 9); format: binding; settings: read-out: % inhibition at 1 uM, DYRK2
Source text: as §3

CLK1 [13] = target: T1, CLK1; experiment: DiscoverX binding assay
Source text: as §3

EGFR(T790M) [14] = target: T7, EGFR(T790M); experiment: Invitrogen Select Screening in vitro kinase assay; format: biochemical
mTOR [15] = target: T8, mTOR (Homo sapiens (Human), UniProt P42345); experiment: DiscoverX binding assay; settings: DiscoverX binding
Source text: as §3

JNK3 = JNK3 (Homo sapiens (Human), UniProt P53779); experiment: Kinase panel at 1 uM (Table 9); format: binding; settings: read-out: % inhibition at 1 uM, JNK3
Source text: as §3

BLK [16] = target: T4, BLK; experiment: Invitrogen Select Screening in vitro kinase assay; format: biochemical
Source text: (§1) The in vitro activity of compounds of Formula (I) and (II) in inhibiting BMX and other kinases were obtained using an Invitrogen Select Screening assay as known in the art. The IC50 values determined from this assay are shown below.

mTOR [17] = target: T8, mTOR; experiment: Invitrogen Select Screening in vitro kinase assay; format: biochemical
Source text: as §1

CLK2 [18] = target: T5, CLK2; experiment: DiscoverX binding assay
Source text: as §3

TEC = TEC (Homo sapiens (Human), UniProt P42680); experiment: DiscoverX binding assay
Source text: as §3

PIK3CA(I800L) = PIK3CA(I800L) (Homo sapiens (Human), UniProt P42336, I800L); experiment: Kinase panel at 1 uM (Table 9); format: binding; settings: read-out: % inhibition at 1 uM, PIK3CA(I800L)
Source text: as §3

T5 sequence (P49760 whole entry): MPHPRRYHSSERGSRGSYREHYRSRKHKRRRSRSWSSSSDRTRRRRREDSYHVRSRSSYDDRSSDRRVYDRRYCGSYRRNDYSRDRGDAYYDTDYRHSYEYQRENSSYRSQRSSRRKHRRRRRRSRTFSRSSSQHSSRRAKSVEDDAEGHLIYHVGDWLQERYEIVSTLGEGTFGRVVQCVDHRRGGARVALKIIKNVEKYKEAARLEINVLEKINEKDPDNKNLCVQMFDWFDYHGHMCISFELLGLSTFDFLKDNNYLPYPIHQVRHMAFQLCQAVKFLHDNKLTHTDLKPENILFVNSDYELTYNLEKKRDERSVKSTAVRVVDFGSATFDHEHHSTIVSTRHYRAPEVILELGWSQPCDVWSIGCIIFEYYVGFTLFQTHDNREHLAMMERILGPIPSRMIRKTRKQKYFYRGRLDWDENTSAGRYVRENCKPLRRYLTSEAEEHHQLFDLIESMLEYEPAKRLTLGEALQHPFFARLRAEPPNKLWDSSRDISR
T2 sequence (P52333 whole entry): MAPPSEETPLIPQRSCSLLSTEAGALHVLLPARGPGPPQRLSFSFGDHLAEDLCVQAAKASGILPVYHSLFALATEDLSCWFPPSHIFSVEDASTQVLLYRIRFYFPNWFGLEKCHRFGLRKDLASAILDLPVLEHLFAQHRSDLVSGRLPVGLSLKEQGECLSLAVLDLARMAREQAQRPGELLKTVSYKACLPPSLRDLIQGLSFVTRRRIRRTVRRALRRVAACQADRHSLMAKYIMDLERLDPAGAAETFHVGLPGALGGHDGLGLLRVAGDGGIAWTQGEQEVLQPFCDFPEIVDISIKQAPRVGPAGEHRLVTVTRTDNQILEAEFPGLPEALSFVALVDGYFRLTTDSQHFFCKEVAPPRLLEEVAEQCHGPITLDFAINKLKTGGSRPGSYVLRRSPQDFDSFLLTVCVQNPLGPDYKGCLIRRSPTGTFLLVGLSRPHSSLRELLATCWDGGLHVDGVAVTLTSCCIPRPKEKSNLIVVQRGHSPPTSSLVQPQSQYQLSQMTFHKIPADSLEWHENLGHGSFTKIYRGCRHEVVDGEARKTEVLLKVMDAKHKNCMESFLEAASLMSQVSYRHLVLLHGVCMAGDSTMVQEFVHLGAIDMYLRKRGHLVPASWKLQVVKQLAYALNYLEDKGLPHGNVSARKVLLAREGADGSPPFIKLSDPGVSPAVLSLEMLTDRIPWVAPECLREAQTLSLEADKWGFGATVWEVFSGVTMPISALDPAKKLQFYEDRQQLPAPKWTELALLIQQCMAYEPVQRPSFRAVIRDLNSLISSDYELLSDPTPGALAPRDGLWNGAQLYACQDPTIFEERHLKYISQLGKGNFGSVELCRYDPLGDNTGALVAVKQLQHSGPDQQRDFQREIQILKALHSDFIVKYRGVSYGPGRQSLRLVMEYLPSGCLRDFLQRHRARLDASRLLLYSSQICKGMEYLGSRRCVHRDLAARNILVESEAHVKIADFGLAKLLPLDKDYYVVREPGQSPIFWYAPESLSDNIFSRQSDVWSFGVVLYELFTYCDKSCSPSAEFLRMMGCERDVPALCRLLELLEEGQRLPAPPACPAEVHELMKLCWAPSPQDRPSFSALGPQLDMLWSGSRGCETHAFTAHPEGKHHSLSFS
T3 sequence (P51813 whole entry): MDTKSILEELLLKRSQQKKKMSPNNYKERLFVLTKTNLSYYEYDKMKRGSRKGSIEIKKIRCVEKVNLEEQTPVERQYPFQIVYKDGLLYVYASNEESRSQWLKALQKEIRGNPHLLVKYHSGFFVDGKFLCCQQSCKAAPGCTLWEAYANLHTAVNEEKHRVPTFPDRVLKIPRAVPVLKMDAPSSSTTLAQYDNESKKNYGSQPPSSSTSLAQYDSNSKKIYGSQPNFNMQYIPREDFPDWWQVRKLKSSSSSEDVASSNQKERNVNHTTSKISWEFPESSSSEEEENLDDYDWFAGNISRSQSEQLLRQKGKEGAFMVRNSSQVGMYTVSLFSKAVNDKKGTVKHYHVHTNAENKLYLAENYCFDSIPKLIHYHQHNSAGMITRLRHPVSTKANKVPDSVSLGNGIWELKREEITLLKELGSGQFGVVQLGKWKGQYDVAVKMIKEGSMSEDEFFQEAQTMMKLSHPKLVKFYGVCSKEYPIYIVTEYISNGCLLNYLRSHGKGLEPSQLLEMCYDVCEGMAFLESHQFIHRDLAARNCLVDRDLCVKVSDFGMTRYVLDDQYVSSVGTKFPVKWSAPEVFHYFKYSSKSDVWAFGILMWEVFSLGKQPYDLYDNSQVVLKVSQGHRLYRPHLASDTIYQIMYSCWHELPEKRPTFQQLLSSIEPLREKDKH
T4 sequence (P51451 whole entry): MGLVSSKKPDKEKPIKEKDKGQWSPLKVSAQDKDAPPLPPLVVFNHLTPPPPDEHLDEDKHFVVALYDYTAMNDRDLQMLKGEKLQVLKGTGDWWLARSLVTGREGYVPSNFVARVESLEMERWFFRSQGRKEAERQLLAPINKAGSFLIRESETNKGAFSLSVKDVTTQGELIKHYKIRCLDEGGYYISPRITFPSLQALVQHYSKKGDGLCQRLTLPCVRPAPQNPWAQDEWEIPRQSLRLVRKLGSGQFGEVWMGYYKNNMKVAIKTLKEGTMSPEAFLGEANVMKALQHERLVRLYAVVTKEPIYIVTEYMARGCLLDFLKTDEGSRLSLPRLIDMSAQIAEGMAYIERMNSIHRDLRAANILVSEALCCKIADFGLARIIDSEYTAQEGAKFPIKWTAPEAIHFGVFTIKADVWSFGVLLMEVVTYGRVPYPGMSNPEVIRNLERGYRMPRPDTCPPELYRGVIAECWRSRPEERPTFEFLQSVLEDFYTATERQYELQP
T1 sequence (P49759 whole entry): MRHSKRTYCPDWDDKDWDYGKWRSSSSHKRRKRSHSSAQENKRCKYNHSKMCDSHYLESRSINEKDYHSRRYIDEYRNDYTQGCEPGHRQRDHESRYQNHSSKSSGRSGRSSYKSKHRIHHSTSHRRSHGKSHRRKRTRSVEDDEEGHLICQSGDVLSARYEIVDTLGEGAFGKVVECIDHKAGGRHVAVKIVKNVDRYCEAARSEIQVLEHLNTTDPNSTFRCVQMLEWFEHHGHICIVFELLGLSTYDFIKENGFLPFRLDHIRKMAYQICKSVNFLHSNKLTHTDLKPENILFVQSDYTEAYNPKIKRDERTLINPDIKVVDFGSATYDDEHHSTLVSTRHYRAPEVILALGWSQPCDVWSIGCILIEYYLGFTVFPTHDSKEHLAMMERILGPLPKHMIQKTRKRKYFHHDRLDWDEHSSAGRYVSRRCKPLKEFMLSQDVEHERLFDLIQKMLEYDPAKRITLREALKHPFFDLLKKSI
T6 sequence (Q06187 whole entry): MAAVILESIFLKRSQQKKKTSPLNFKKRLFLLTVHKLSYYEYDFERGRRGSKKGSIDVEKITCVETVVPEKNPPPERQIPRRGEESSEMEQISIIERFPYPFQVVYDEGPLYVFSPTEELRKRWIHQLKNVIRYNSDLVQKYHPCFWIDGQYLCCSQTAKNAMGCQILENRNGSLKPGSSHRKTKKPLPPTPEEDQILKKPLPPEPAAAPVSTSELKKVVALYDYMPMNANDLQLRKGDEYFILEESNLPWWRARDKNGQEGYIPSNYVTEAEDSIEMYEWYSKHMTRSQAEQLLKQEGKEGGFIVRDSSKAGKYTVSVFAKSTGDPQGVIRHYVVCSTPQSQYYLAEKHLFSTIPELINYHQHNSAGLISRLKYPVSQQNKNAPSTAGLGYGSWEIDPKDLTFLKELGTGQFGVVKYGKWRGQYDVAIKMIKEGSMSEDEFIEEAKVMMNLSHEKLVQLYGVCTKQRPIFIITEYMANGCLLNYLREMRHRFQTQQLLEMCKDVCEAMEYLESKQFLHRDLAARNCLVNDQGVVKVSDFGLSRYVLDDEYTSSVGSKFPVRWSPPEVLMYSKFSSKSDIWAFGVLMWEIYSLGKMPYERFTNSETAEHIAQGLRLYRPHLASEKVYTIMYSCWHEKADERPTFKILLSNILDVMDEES
MKNK2, sequence (Q9HBH9 whole entry): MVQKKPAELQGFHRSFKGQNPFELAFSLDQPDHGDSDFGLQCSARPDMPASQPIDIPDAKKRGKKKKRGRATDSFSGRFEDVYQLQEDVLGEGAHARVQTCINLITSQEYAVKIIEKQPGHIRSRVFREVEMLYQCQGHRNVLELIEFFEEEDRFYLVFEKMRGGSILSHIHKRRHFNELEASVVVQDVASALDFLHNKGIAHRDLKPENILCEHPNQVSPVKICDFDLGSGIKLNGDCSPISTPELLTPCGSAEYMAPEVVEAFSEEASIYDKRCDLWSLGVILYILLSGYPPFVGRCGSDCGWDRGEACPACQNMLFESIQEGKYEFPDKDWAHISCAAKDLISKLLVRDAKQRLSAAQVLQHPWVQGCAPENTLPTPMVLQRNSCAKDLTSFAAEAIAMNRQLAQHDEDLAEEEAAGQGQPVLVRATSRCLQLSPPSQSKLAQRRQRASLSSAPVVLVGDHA
JNK3, sequence (P53779 whole entry): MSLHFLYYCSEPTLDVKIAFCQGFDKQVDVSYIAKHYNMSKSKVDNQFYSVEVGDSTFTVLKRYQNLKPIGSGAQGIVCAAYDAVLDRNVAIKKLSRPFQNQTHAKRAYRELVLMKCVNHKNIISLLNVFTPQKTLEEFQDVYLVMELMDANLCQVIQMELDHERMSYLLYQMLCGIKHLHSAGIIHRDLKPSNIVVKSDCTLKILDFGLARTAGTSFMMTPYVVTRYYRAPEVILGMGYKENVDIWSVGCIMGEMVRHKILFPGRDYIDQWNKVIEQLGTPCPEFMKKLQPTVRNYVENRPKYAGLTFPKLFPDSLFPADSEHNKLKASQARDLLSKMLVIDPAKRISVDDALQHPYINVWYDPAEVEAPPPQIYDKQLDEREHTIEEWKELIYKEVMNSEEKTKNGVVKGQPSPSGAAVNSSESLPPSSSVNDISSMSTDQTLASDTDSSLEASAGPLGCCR

For `NC1(c2ccc(-c3nc4ccn5c(=O)[nH]nc5c4cc3-c3ccccc3)cc2)CCC1` [MK2206], the “MK2206 concentration that potentiates the antiproliferative activity of I-14” value (RV-1 cells) was at most 25 nM.

`CN(c1ncccc1CNc1nc(Nc2ccc3c(c2)CC(=O)N3)ncc1C(F)(F)F)S(C)(=O)=O` [PF562271] was tested, and the “stimulatory effect of BmxWT on wound healing migration” value [1] was “blocked”.

`C=CC(=O)N1CCc2ccc(-n3c(=O)ccc4cnc5ccc(-c6cnn(C)c6)cc5c43)cc21` [II-4] was tested, and the “killing of ex vivo CD19+ B-cells” value [2] was “effectively killed ex vivo cells”, the EC50 (OCI-Ly3 cells) was 190 nM and the EC50 (BCWM.1 cells) was 120 nM. The EC50 (OCI-Ly19 cells) was 30 nM and the EC50 (MWCL-1 cells) was 190 nM.

For `C=CC(=O)Nc1cc(-n2c(=O)ccc3cnc4ccc(-c5cn[nH]c5)cc4c32)ccc1C` [II-6], the IC50 (CLK1 [3]) was 384 nM, the “Percent Control, JAK3” value (JAK3 [4]; DiscoverX binding) was 0% and the inhibition at 1 µM (JAK3 [4]; read-out: % inhibition at 1 uM, JAK3(JH1domain-catalytic)) was 0%. For the same molecule, the inhibition at 1 µM (IRAK3) was 0.7%, the IC50 (JAK3 [5]) was 38.1 nM and 38 nM and the inhibition at 1 µM (MKNK2) was 0.15%. For the same molecule, the “Percent Control, ITK” value (ITK) was 29%, the IC50 (BMX [6]) was 7.36 nM and 7 nM and the inhibition at 1 µM (YSK4) was 1.2%. The EC50 (OCI-Ly3 cells) was 80 nM, the inhibition at 1 µM (MEK5) was 0.3% and the “Percent Control, BLK” value (BLK [7]; DiscoverX binding) was 2.4%. For the same molecule, the inhibition at 1 µM (BLK [7]; read-out: % inhibition at 1 uM, BLK) was 2.4%, the inhibition at 1 µM (PIK3CG) was 4.2% and the “% inhibition at 1 uM, FLT3(ITD)” value (FLT3(ITD)) was 2.4%. For the same molecule, the inhibition at 1 µM (TAK1) was 0.35%, the IC50 (CLK2 [8]) was 50 nM and the “Percent Control, BTK” value (BTK [9]; DiscoverX binding) was 0.2%. It also gave a percent of control (remaining binding) at 1 µM (BTK [9]; read-out: % inhibition at 1 uM, BTK) of 0.2%, an EC50 (BCWM.1 cells) of 50 nM and an inhibition at 1 µM (DYRK1B) of 1.8%. The inhibition at 1 µM (JNK1) was 1.9%, the “Percent Control, EGFR(T790M)” value (EGFR(T790M) [10]; DiscoverX binding) was 1.8% and the inhibition at 1 µM (EGFR(T790M) [10]; read-out: % inhibition at 1 uM, EGFR(T790M)) was 1.4%. The EC50 (OCI-Ly19 cells) was 40 nM, the IC50 (BTK [11]) was 5.34 nM and 5 nM and the EC50 (Ramos cells) was 40 nM. The inhibition at 1 µM (PIK4CB) was 2.3%, the inhibition at 1 µM (CSNK2A2) was 1.2% and the inhibition at 1 µM (PIP5K2C) was 2.7%. The inhibition at 1 µM (DYRK1A) was 0.1%, the “Percent Control, BMX” value (BMX [12]) was 4.6% and the inhibition at 1 µM (DYRK2) was 0.6%. The “Percent Control, CLK1/2 (CLK1)” value (CLK1 [13]; DiscoverX binding, first value of cell) was 0.4%, the inhibition at 1 µM (CLK1 [13]; read-out: % inhibition at 1 uM, CLK1) was 0.4% and the IC50 (EGFR(T790M) [14]) was 98.8 nM. The EC50 (MWCL-1 cells) was 180 nM, the “Percent Control, mTOR” value (mTOR [15]) was 0% and the inhibition at 1 µM (JNK3) was 1.8%. The IC50 (BLK [16]) was 30.2 nM and 30 nM, the IC50 (mTOR [17]) was 21.9 nM and 22 nM and the “Percent Control, CLK1/2 (CLK2)” value (CLK2 [18]; DiscoverX binding, second value of cell) was 1.0%. The inhibition at 1 µM (CLK2 [18]; read-out: % inhibition at 1 uM, CLK2) was 1.6%, the “Percent Control, TEC” value (TEC) was 6% and the inhibition at 1 µM (PIK3CA(I800L)) was 0.45%.
